This is an account of results in a melting point compilation (Tetko et al.; mined from patent text by program, amines drawn as free bases though some values may be those of a salt).

Usually melting point stands for the temperature of the solid-liquid transition.

Consider `Cn1cc(C(N)=O)c(=O)c2ccc(F)cc21`, for which the melting point lay in the range of 317 to 318 °C.
In turn, `CCOC(=O)c1cn(C)c2cnc3c(F)c(F)ccc3c2c1=O` had a melting point of 320 °C.
Consider `O=C1Nc2c(O)cc(Cl)cc2C(C#CC2CC2)(C(F)(F)F)O1` (single isomer, unassigned; (-)), for which the melting point is 170 to 172 °C.
On to `O=C(CCCCC(=O)Oc1cccc(O)c1O)Oc1cccc(O)c1O`, for which the melting point was in the range of 110 to 111 °C.
`COC(=O)CCC(NC(=O)Nc1cccc(C)c1)C(=O)O` (racemic) returned a melting point of 127 °C.
For `Nc1ncc2ncn(CCC(CO)COC(=O)c3ccccc3)c2n1` (centres undefined) the value was 116 to 118 °C; for `CC(C)NC(=O)c1ccc(CCN2CC=C(c3c[nH]c(-c4ccc(F)cc4)c3-c3ccncc3)CC2)cc1`, 178 to 180 °C.
Regarding `CC(=O)N1CCC(C)(C)c2cccc(CCCN3CCN(c4nsc5ccccc45)CC3)c21`, the melting point was found to be 109 °C.
With `COCCOc1c2ccccc2c(C=O)c2ccccc12`, the melting point was 87 to 88 °C.
For `CC(c1ccccc1)N1CC(C(C(N)=O)(c2ccccc2)c2ccccc2)C1` (centres undefined) the value was 153 to 154 °C; for `CS(=O)(=O)NCCCC(c1cc(F)ccc1F)S(=O)(=O)c1ccc(Cl)cc1` (centres undefined), 128 °C; for `CC(C)(C)NCC(O)COc1ccccc1-c1ccc(=S)[nH]n1` (centres undefined), 186 to 189 °C.
For `O=C(O)Cn1c(=S)c2ccccc2n(Cc2ccc(Cl)c(Cl)c2)c1=O`, the melting point was in the range of 237 to 238 °C.
On to `COc1ccc(N=Nc2ccc(O)c(C(=O)Nc3ccc(OC)c(-c4nn(C(C)=O)c5cc(C)nn45)c3)c2)cc1`, for which the melting point lay within 282 to 283 °C.
Turning to `Nc1nc(-c2ccc(CCN3CCN(c4cccc(C(F)(F)F)c4)CC3)cc2)cs1`, the melting point was 274 to 277 °C.
Take `CCCc1c(OCCCOc2ccc(C(C)=O)c(OCCCC(=O)O)c2CCC)ccc(C(C)=O)c1O`: the melting point fell in the range of 50 to 53 °C.
In turn, `O=c1cc(-c2ccc(Cl)cc2)oc2ccc(OCCCCCCN3CCC(O)CC3)cc12` returned a melting point of 127 to 128 °C.
Regarding `COc1cc(-c2cc(=O)c3ccc(OCC(O)CNC(C)C)cc3o2)cc(OC)c1OC` (centres undefined), the melting point lay within 106 to 107 °C.
In turn, `CCN(CC)Cc1nc2cc(OC)c(OC)cc2c(-c2ccc(OC)c(OC)c2)c1C(C)=O` gave a melting point of 146 to 148 °C.
For the molecule `CC(C)Cc1nc2ccc(Cl)cc2c(-c2ccccc2)c1CO`, the melting point was 130 to 131 °C.
`C=Cc1ccc2c(c1)C[C@H](C(=O)N1CCC[C@H](C)C1)N2c1cccnn1` returned a melting point of 206 to 209 °C.
Regarding `COC(=O)c1cc(-c2nc(COc3ccc(COc4nn(-c5ccccc5)cc4C=O)cc3OC)c(C)o2)ccc1OS(C)(=O)=O`, the melting point fell in the range of 136 to 137 °C.
`Cc1c(Cl)nn2cc(-c3ccc(F)cc3)nc2c1C`: the melting point fell in the range of 172 to 174 °C.
Under `Cc1cc(C(N)=O)ncc1C(c1c(F)ccc(F)c1F)S(=O)(=O)CCC(C)(C)C` (centres undefined) stands 143 to 144 °C; under `CC(=O)NCC1CN(c2ccc(N3CCN(C4=NC(=O)CS4)CC3)c(F)c2)C(=O)O1` (centres undefined), 225 to 227 °C.
In turn, `COc1ccc(CN2C(C(=O)Nc3ccccn3)=C(O)c3sc4ccccc4c3S2(=O)=O)cc1` registered a melting point of 188 to 190 °C.
Take `COc1ncnc(N2CCCC2)c1Cc1cccc(F)c1`: the melting point is 74 to 76 °C.
The molecule `CC(=O)Nc1cc(/C=C/C(=O)NCC(=O)N(C)c2ccc(Cl)c(COc3cccc4ccc(C)nc34)c2Cl)ccn1` had a melting point of 115 to 131 °C.
For `CN(CCN(CCC12CC3CC(CC(C3)C1)C2)C(=O)NCCCc1ccncc1)S(C)(=O)=O` the value was 165 to 167 °C.
In turn, `Cc1oc(=O)c(Nc2ccccc2)nc1Cl` had a melting point of 133 to 137 °C.
For the molecule `Cc1onc(-c2ccccc2)c1C(=O)NC1C(=O)N2C1SCC(C)(Cl)C2C(=O)O` (centres undefined), the melting point was determined as 210 °C.
`CCCCCCCCCCCCCCc1ccc(OC)cc1` registered a melting point of 38 °C.
For the molecule `CCCCCCCNC(=O)Nc1ccccc1C(=O)NC1CCCNC1` (centres undefined), the melting point was determined as 165 °C.
The molecule `CN1CC=C(c2cc3ccccc3c(=O)[nH]2)CC1` gave a melting point of 222 to 223 °C.
`CN(C)C1CCN(C(=O)C2CCC(Nc3nccc(-n4ccc5c(OCCCS(C)(=O)=O)cccc54)n3)CC2)CC1` (centres undefined) returned a melting point of 182 to 183 °C.
With `O=C(Nc1ccccn1)C(CC1CCCC1)c1ccc(-c2cccc3ccccc23)cc1` (centres undefined), the melting point is 73 to 77 °C.
In the case of `CCc1nc2c(C)c(Br)c(C)nc2n1Cc1ccc2oc(-c3cccc(F)c3C(=O)O)c(Br)c2c1`, the melting point lay within 223 to 225 °C.
Consider `CCn1c(C)c(C(=O)c2ccc(N)cc2C(=O)O)c2ccccc21`, for which the melting point lay in the range of 187 to 189 °C.
With `CCNc1cc(Oc2ccc(N)cc2)ncn1`, the melting point fell in the range of 143 to 145 °C.
For the molecule `CCCc1nc2cnc3cc(OCC(=O)N4CCOCC4)ccc3c2s1`, the melting point fell in the range of 133 to 136 °C.
Take `CC(=O)NCC1CN(c2cccc(Cl)n2)C1`: the melting point fell in the range of 136 to 138 °C.
`CCOc1c(C)c(N2CCN(c3ccc(C)cc3)CC2)c(C)c2c1OC(C)(C)C2` yielded a melting point of 152 to 155 °C.
On to `Cc1cccc(N2CCNC2=O)c1`, for which the melting point was 137 to 138 °C.
For `Nc1c(C(=O)c2ccoc2)[nH]c2cc(Cl)ccc12` the value was 113 to 114 °C; for `COC(=O)C1=C(C)NC(C)=C(C(=O)OCC2CCCO2)C1c1ccc(Cl)c([N+](=O)[O-])c1` (centres undefined), 148 to 150 °C.
As to `CCCN1C(=O)C2(c3ccc(N)cc3)CC(c3ccc(N)cc3)(C2)C1=O`, the melting point fell in the range of 149 to 150 °C.
In turn, `COC(=O)c1ccc(CN2CCN(C(=O)c3cc(C(F)(F)F)cc(C(F)(F)F)c3)[C@H](Cc3c[nH]c4ccccc34)C2)cc1` returned a melting point of 75 to 78 °C.
`Cc1cc(C)c2[nH]c(=O)n(CCCN3CC=C(c4ccc(Cl)cc4)CC3)c(=O)c2c1` returned a melting point of 224 to 226 °C.
Regarding `C=CCCCOc1ccc(-c2ccc([N+](=O)[O-])cc2)cc1`, the melting point lay within 74 to 76 °C.
In the case of `CN1COC(CC23CCC(c4ccccc42)c2ccccc23)C1` (centres undefined), the melting point is 106 to 109 °C.
With `COCCOC(=O)OC[C@@H]1CC(c2ccc(-c3ccc(N4C[C@H](Cn5ccnn5)OC4=O)cc3F)cn2)=NO1`, the melting point is 112 °C.
Molecule `Cc1nnc(Sc2nc3ccc(Cl)cc3nc2C)s1` displayed a melting point of 189 to 190 °C.
For `CC(C)(C)c1cc(-c2n[nH]c(=O)[nH]2)cc(C(C)(C)C)c1O` the value was 276 to 280 °C; for `Cc1n[nH]c2cc(-c3nn(C(C)c4oc5ccccc5c(=O)c4-c4cccc(F)c4)c4ncnc(N)c34)ccc12` (centres undefined), 158 to 161 °C; for `CCc1nn(C2CCCCC2)c2cc(C(=O)O)ccc12`, 196 to 197 °C.
For `Cc1cn([C@H]2CC(N=[N+]=[N-])[C@@H](COC(=O)C(C)(C)CC(=O)N[C@@H](Cc3ccccc3)[C@H](O)C(=O)N3CSC[C@H]3C(=O)NC(C)(C)C)O2)c(=O)[nH]c1=O` (some centres undefined), the melting point lay in the range of 83 to 84 °C.
As to `COc1ccc2cc(C(C)C(=O)O)ccc2c1Br` (centres undefined), the melting point was 149 to 151 °C.
`CCOC(=O)C1(C)ON=C(C2(C)CC(c3ccc(OC)c(OC4CCCC4)c3)=NO2)O1` (centres undefined) came in with a melting point of 139 to 140 °C.
For `CC(=O)CSc1nc2ccccc2cc1-c1ccccc1` the value was 88 to 90 °C.
For `COc1ccc(CNc2nnc(Cl)c3ccc(C#N)cc23)cc1Cl` the value was 213 to 214 °C.
`CC(C)(C)c1ccccc1N1CCN(C(=O)c2ncoc2-c2ccccc2)CC1` came in with a melting point of 146 to 148 °C.
Turning to `CN1CCN(c2cccc3c2C[C@H](NC(=O)c2ccc(C(=O)N4CCOCC4)cc2)CO3)CC1`, the melting point is 222 °C.
`C=C1SC(=O)N(c2ccc3cc(-c4ccc(OC)c(C(C)(C)C)c4)ccc3c2)C1=O` yielded a melting point of 274 to 276 °C.
For `CN(C)C(=O)c1nc(-c2ccncc2)nc2c1c1ccc(Cl)cc1n2C` the value was 268 to 269 °C.
Molecule `Cc1c(NC(=O)CC(C)(C)C)c(C)c2c(c1C(=O)c1ccccc1)OC[C@@H]2c1ccc(C(C)C)cc1` yielded a melting point of 205 to 206 °C.
Consider `c1csc(-c2ccc3cc(-c4cccs4)ccc3c2)c1`, for which the melting point is 256 to 258 °C.
Take `NS(=O)(=O)c1ccc(-c2ccc(Cl)n2-c2ccc(Cl)cc2Cl)cc1`: the melting point was 186 to 187 °C.
For `COc1cc2c(Oc3ccc(Cl)cc3F)ncnc2cc1OCc1ccncc1` the value was 197 to 198 °C.
Regarding `CC(=O)Oc1ccc2cccc(O)c2n1`, the melting point fell in the range of 240 to 241 °C.
Under `O=C1c2ccc(Nc3ccc(F)cc3F)cc2CCc2cc(OCCO)ccc21` stands 138 °C; under `COc1ccc(SC2CC(=O)N2CC(=O)NCCCCCCc2ccc(Cl)cc2)cc1` (centres undefined), 84 to 86 °C; under `COC(=O)c1cn(Cc2ccc(OCc3nc(-c4ccccc4)oc3C)cc2)cc1-c1ccccc1`, 115 to 116 °C.
With `C(=CCON(c1ccccc1)c1ccccc1)CON(c1ccccc1)c1ccccc1`, the melting point was 74 to 76 °C.
With `N#CC(C#N)=C1C=C(C=Cc2ccc(N)cc2)OC(C=Cc2ccc(N)cc2)=C1`, the melting point was determined as 249 °C.
Molecule `Brc1ccc(-n2ccc3cc(OCc4ccccc4)ccc32)cc1` yielded a melting point of 118 °C.
`COc1cc(NC(=S)NCCN)cc(OC)c1` yielded a melting point of 125 to 126 °C.
`CN(C)C=C(C#N)C(=O)c1c[nH]c2ccccc12` gave a melting point of 187 to 188 °C.
`O=C(O)c1cc(-n2nc3n(c2=O)CCCC3)c(F)cc1Cl` registered a melting point of 91 to 94 °C.
As for `CC(=O)c1c(C)[nH]c(CC(C)C)c1C`, the melting point lay in the range of 150 to 152 °C.
Molecule `COc1ccc(S(=O)(=O)C(CCCc2ccccc2)(CCCc2ccccc2)C(=O)NO)cc1` yielded a melting point of 118 to 120 °C.
For the molecule `COc1cc(N(C)C(C)C)ccc1CN1C(=O)C(C)(c2ccccc2Cl)c2cc(Cl)ccc21` (centres undefined), the melting point came out at 156 °C.
For `COc1ccc(Oc2ccc(OC(=O)N3CCC(C)CC3)cc2)cc1` the value was 81 to 84 °C; for `CON(C(=N)N)c1nc(C)cc(C)n1`, 134 to 136 °C; for `COc1ccc(-c2[nH]c(=O)c3cc(OC)ccc3c2N2CCOCC2)cc1`, 139 °C.
